According to patent US8414989B2, “Cyclodextrin compositions, articles, and methods” (Cellresin Technologies, LLC, priority 2011, dated 2013):

How the values were obtained:
[1] = Example 6: 1-MCP headspace release from PSA labels; assay type: physicochemical; settings: 2.5 cm x 2.5 cm PSA label, 250 mL bottle; for Headspace concentration of 1-MCP, average: 50 μL water
Description: A 100 mL quartz beaker was charged with 54 g of 2-isooctyl acrylate, 6 g of acrylic acid, and 0.60 g of 1-hydroxycyclohexyl phenyl ketone (IRGACURE® 184, Ciba Specialty Chemicals Corp. of Tarrytown, N.Y.). The beaker was equipped with a mechanical stirrer, and the contents were mixed for about 5 minutes while sparging with dry helium. Then the beaker was irradiated with a medium pressure mercury arc lamp operating at 79 watts per cm situated about 15 cm from the side of the beaker. The light was turned off when the contents of the flask were of a honey-like consistency, about 1.5 minutes. The beaker was further charged with 3.23 g of 1-MCP/c/α-CD, 0.89 g of IRGACURE® 184, 5.8 g of isooctyl acrylate, and 0.72 g of acrylic acid. The beaker contents were mixed until uniformly dispersed, about 5 minutes.
About 4 mL of the mixture in the bottle was removed with a metered dropper and dispensed on 30.5 cm by 30.5 cm white paper labelstock, and drawn down using a metering rod (Meyer coating rod #30) having a delivered coating thickness of 25 microns. Then a 21.5 cm by 28 cm silicone coated polyester (PET) film sheet (120 μm thick (obtained from the 3M Company of St. Paul, Minn.) was placed over the coated labelstock, taking care not to entrain air bubbles. The coated and covered labelstock was cut into 10 cm by 20 cm rectangles using a paper cutter. The cut samples were passed by hand about 15 cm beneath a medium pressure mercury arc lamp operating at 79 watts per cm; multiple hand passes beneath the UV light or about 30 seconds under the lamp was used to cure the adhesive. The cured coated labelstock sheets were allowed to sit PET side up on a laboratory bench overnight.
A paper cutter was used to cut six replicate 2.5 cm by 2.5 cm squares from the sheets. Because the UV cured coating composition is a pressure sensitive adhesive, or PSA, the 2.5 cm by 2.5 cm squares are termed “PSA labels.” Each PSA label, with the silicone coated PET still in place, was placed in a 250 mL serum bottle. Each bottle was sealed with a TEFLON® faced silicone septum. The headspace concentration of 1-MCP was measured after 1 hour following introduction of the PSA label into a bottle, using the technique of Example 3 except that 250 μL of gas was removed from the sample bottle for the analysis. 1-MCP was below the quantification limit of 0.01 ppm.
Then 50 μL of deionized water was injected into each bottle. […] The sealed bottle headspace was analyzed at 10 minutes, 30 minutes, and 60 minutes, using the technique of Example 3. A final headspace sample was analyzed 16 hours after the injection of water. The data illustrate that 1-MCP was released from a PSA label into the headspace when exposed to water vapor (humidity) and that its concentration increases over time.

[2] = Example 4: 1-MCP headspace release versus coated surface area and time; assay type: physicochemical; settings: 4.0 wt-% 1-MCP/c/α-CD coating, 20 μL water
Description: A 4.0 wt-% 1-MCP/c/α-CD blend was made according to the technique of Example 3. A rubber ink roller was used to deliver a coating having a nominal thickness of 0.3 μm to a 20 cm by 20 cm polyethylene extrusion coated paper sheet using the technique of Example 2. The coated sheet was cured according to the procedure of Example 2.
Using a razor blade, 26 cm^2, 52 cm^2, and 78 cm^2 samples were cut from the coated portion of the sheet. Each sample was placed in a 250 mL serum bottle. The bottles were sealed with TEFLON® faced silicone septa. Then 20 μL of deionized water was injected into each bottle. […] Bottle headspace analysis was conducted according to the technique of Example 3 at 0.17 hours, 0.5 hours, 1 hour, 2 hours, 4 hours and 24 hours after the injection of water.

[3] = Example 8: 1-MCP headspace release from cured coating with varying amounts of liquid water; assay type: physicochemical; settings: 4.0 wt-% 1-MCP/c/α-CD coating, 5 cm x 10 cm, 250 mL bottle
Description: A 4.0 wt-% 1-MCP/c/α-CD coating blend was made according to the technique of Example 3. A 20 cm by 20 cm polyethylene extrusion coated paper sheet was coated with the mixture using the technique of Example 2. A paper cutter was used to cut nine, 5 cm by 10 cm rectangles from the sheet. The cut, coated rectangles were passed by hand about 10 cm beneath a medium pressure mercury arc lamp operating at 79 watts per cm. After 1.5 seconds exposure to the lamp, the sample was removed. The cured sample was allowed to sit on a laboratory bench overnight coating side down.
Each cured sample was placed in a 250 mL serum bottle. Each bottle was sealed with a TEFLON® faced silicone septum. The amount of liquid water that would, in vapor form, correspond to 100% relative humidity (RH) at 20° C. (provided at http://hyperphysics.phy-astr.gsu.edu/hbase/kinetic/vappre.html#c) is 17.3 g/m^3, or 17.3 g per 1000 L. The density of water at 20° C. is 0.9982 g/mL. Thus, at 20° C., 4.3 μL, of liquid water added to an enclosed volume of 250 mL and containing no other water will vaporize to give 100% RH. Our laboratory facility temperature was 20° C.±5° C.
Three of the bottles were injected with 10 μL, of deionized water, three with 20 μL of deionized water, and three with 50 μL of deionized water. […] The headspace of each bottle was analyzed for 1-MCP at 2 hours, 4 hours, 8 hours, 24 hours, and 48 hours after the injection of water, wherein the headspace analysis was conducted using the analytical technique employed in Example 3.

[4] = cited from earlier work

SMILES: CC1=CC1 [1-MCP, 1-methylcyclopropene]
- Headspace concentration of 1-MCP, average ([1]; 0.17 hours): 0.01 ppm (v/v)
- Headspace concentration of 1-MCP, average ([1]; 0.5 hours): 1.3 ppm (v/v)
- Headspace concentration of 1-MCP, average ([1]; 1 hour): 3.6 ppm (v/v)
- Headspace concentration of 1-MCP, average ([1]; 16 hours): 29.7 ppm (v/v)
- Headspace concentration of 1-MCP ([1]; no water, 1 hour, quantification limit): < 0.01 ppm
- Headspace concentration of 1-MCP ([2]; 26 cm^2, 250 mL bottle, 0.17 hrs): 0.25 ppm -v/v
- Headspace concentration of 1-MCP ([2]; 26 cm^2, 250 mL bottle, 0.5 hrs): 1.5 ppm -v/v
- Headspace concentration of 1-MCP ([2]; 26 cm^2, 250 mL bottle, 1 hr): 2.4 ppm -v/v
- Headspace concentration of 1-MCP ([2]; 26 cm^2, 250 mL bottle, 2 hrs): 3.7 ppm -v/v
- Headspace concentration of 1-MCP ([2]; 26 cm^2, 250 mL bottle, 4 hrs): 5.8 ppm -v/v
- Headspace concentration of 1-MCP ([2]; 26 cm^2, 250 mL bottle, 24 hrs): 9.6 ppm -v/v
- Headspace concentration of 1-MCP ([2]; 52 cm^2, 250 mL bottle, 0.17 hrs): 0.66 ppm - v/v
- Headspace concentration of 1-MCP ([2]; 52 cm^2, 250 mL bottle, 0.5 hrs): 2.2 ppm - v/v
- Headspace concentration of 1-MCP ([2]; 52 cm^2, 250 mL bottle, 1 hr): 4.2 ppm - v/v
- Headspace concentration of 1-MCP ([2]; 52 cm^2, 250 mL bottle, 2 hrs): 7.0 ppm - v/v
- Headspace concentration of 1-MCP ([2]; 52 cm^2, 250 mL bottle, 4 hrs): 9.9 ppm - v/v
- Headspace concentration of 1-MCP ([2]; 52 cm^2, 250 mL bottle, 24 hrs): 16.1 ppm - v/v
- Headspace concentration of 1-MCP ([2]; 78 cm^2, 250 mL bottle, 0.17 hrs): 1.7 ppm - v/v
- Headspace concentration of 1-MCP ([2]; 78 cm^2, 250 mL bottle, 0.5 hrs): 3.4 ppm - v/v
- Headspace concentration of 1-MCP ([2]; 78 cm^2, 250 mL bottle, 1 hr): 5.2 ppm - v/v
- Headspace concentration of 1-MCP ([2]; 78 cm^2, 250 mL bottle, 2 hrs): 7.9 ppm - v/v
- Headspace concentration of 1-MCP ([2]; 78 cm^2, 250 mL bottle, 4 hrs): 12.4 ppm - v/v
- Headspace concentration of 1-MCP ([2]; 78 cm^2, 250 mL bottle, 24 hrs): 20.0 ppm - v/v
- Headspace concentration of 1-MCP, average ([3]; 10 μL H2O, 2 hr): 1.3 ppm (v/v)
- Headspace concentration of 1-MCP, average ([3]; 10 μL H2O, 4 hr): 2.5 ppm (v/v)
- Headspace concentration of 1-MCP, average ([3]; 10 μL H2O, 8 hr): 3.8 ppm (v/v)
- Headspace concentration of 1-MCP, average ([3]; 10 μL H2O, 24 hr): 7.1 ppm (v/v)
- Headspace concentration of 1-MCP, average ([3]; 10 μL H2O, 48 hr): 10.0 ppm (v/v)
- Headspace concentration of 1-MCP, average ([3]; 20 μL H2O, 2 hr): 2.6 ppm (v/v)
- Headspace concentration of 1-MCP, average ([3]; 20 μL H2O, 4 hr): 5.8 ppm (v/v)
- Headspace concentration of 1-MCP, average ([3]; 20 μL H2O, 8 hr): 9.2 ppm (v/v)
- Headspace concentration of 1-MCP, average ([3]; 20 μL H2O, 24 hr): 15.7 ppm (v/v)
- Headspace concentration of 1-MCP, average ([3]; 20 μL H2O, 48 hr): 20.5 ppm (v/v)
- Headspace concentration of 1-MCP, average ([3]; 50 μL H2O, 2 hr): 8.7 ppm (v/v)
- Headspace concentration of 1-MCP, average ([3]; 50 μL H2O, 4 hr): 18.6 ppm (v/v)
- Headspace concentration of 1-MCP, average ([3]; 50 μL H2O, 8 hr): 30.8 ppm (v/v)
- Headspace concentration of 1-MCP, average ([3]; 50 μL H2O, 24 hr): 55.3 ppm (v/v)
- Headspace concentration of 1-MCP, average ([3]; 50 μL H2O, 48 hr): 63.0 ppm (v/v)
- 1-MCP remained complexed ([4]; 1-MCP/c/α-CD, end of the experiments): ~83.4%
- total complexed 1-MCP dissociated at the end of the experiments, average ([4]; 1-MCP/c/α-CD, humidity-triggered dissociation): ~17.6%
- complexed 1-MCP released from 1-MCP/c/α-CD ([4]; 100% relative humidity): less than 20%
